Reference: ChEMBL document CHEMBL1201862, “PubChem BioAssay data set” (2004)
Active and inactive are the calls of the source.

Assays:
[1] = molecular target: T1, Ubiquitin-conjugating enzyme E2 N (Homo sapiens, UniProt P61088); type: functional;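 further: Dose-response confirmation in a TR-FRET assay detecting UBC13-driven polyubiquitin chain formation, inhibition measured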
T1 sequence (P61088 whole entry): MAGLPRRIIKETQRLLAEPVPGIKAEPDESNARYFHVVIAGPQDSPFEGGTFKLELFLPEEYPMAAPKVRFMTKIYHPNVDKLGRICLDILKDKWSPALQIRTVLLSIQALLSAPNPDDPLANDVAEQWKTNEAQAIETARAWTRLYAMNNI

Large T antigen = Large T antigen (Simian virus 40, UniProt P03070); type: functional, Betapolyomavirus macacae;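 further: Confirmatory-stage PubChem screen for compounds that inhibit SV40 T antigen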
[2] = molecular target: T2, Polyadenylate-binding protein 1 (Homo sapiens, UniProt P11940); test: MLLE binding blockers, Cy5 peptide tracer – biochemical, fluorescence polarization, Cy5-PAM2 peptide, secondary, miRNA deadenylation inhibitor project, dose response (AID 602260); type: functional; details: read-out: IC50_Mean
[3] = molecular target: T2, Polyadenylate-binding protein 1; test: MLLE domain peptide-binding blockers, IC50 – biochemical, fluorescence polarization, FITC-PAM2 peptide, dose response (AID 602259); type: functional; details: read-out: IC50_Mean
[4] = molecular target: FAD-linked sulfhydryl oxidase ALR (Homo sapiens, UniProt P55789); test: ALR-catalysed DTT oxidation blockers – biochemical, H2O2 detection, luminescence, cherry-pick, dose response (AID 493248)
[5] = viability of PTEN-deleted HCT116 cells – cell-based, HCT116 PTEN knockout, dose response (AID 1047); type: functional;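 further: HCT116 colon tumor cells with PTEN knocked out; cells exposed to compound for 60 hours before readout; potency for loss of cell viability measured by luminescence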
[6] = viability of HCT116 lacking mutant beta-catenin – cell-based, human colon tumor, dose response (AID 1045); type: functional;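 further: HCT116 colon tumor cells with beta catenin knocked out; cells exposed to compound for 60 hours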
Nonstructural protein 1 = Nonstructural protein 1 (Influenza A virus, UniProt Q194T2); type: functional, Influenza A virus (A/California/07/2009(H1N1))
[7] = molecular target: T3, Heat shock factor protein 1 (Mus musculus, UniProt P38532); test: enhancement of HSF1-driven luciferase signal – cell-based, NIH3T3, luminescence, dose retest, confirmation (AID 435004); type: functional;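 further: stress induced by proteasome inhibitor MG132 added 30 min after compound; luciferase reporter driven by HSF1 response element in NIH3T3 cells; actives raise luminescence as potentiators of the MG132 stress response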
T3 sequence (P38532 whole entry): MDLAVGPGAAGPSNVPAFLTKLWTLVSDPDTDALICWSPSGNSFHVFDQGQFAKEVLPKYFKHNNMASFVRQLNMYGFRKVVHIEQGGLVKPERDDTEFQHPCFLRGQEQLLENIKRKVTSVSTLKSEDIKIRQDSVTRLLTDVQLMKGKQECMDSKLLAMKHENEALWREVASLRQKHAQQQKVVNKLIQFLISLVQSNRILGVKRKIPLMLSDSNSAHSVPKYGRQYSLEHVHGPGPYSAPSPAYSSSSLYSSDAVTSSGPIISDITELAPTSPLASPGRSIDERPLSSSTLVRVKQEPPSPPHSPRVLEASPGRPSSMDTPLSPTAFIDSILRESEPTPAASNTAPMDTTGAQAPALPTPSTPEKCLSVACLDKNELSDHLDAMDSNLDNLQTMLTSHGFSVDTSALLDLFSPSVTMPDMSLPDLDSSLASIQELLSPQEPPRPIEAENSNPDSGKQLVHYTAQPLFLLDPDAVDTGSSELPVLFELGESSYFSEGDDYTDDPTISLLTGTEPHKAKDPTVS

INS1 = test: INS-1E survival protection against cytokine death – cell-based, luminescence, retest, dose response (AID 449756); type: functional; details: Rattus norvegicus;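 further: cell death triggered by IL-1 beta plus TNF-alpha plus IFN-gamma mixture; protective hits raise ATP signal compared with cytokine alone wells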
Cytochrome P450 2C9 = Cytochrome P450 2C9 (Homo sapiens, UniProt P11712)
[8] = viability of uninfected HEp-2 cells – cell-based, HTS, cytotoxicity control for RSV inhibitor project, dose response (AID 2410); type: functional; details: human respiratory syncytial virus
[9] = Luminescence Cell-Based Dose Retest to Confirm Inhibitors of Cancer Stem Cells. [Related pubchem assays (depositor defined):AID2717, AID2721]; type: functional; details: Homo sapiens
[10] = molecular target: T3, Heat shock factor protein 1; test: decrease of HSF1-responsive luciferase luminescence – cell-based, NIH3T3, dose retest, confirmation (AID 2382); type: functional;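 further: NIH3T3 fibroblasts with HSF1-driven luciferase reporter stressed by proteasome inhibitor MG132; luminescence from HSF1-driven luciferase expression after 8 hours of MG132 stress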
Streptococcus = test: GAS UMAA2166 growth inhibition – luminescence, BacTiterGlo, counter-screen for streptokinase expression inhibitor project, dose response (AID 1915); type: functional, organism-based;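 further: potency for reduction of bacterial viability or growth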
[11] = tested on: Streptococcus sp. 'group A'; test: Streptococcus pyogenes SK(-)GAS viability under kanamycin – luminescence, BacTiterGlo, confirmation, counter-screen for streptokinase expression inhibitor project, dose response (AID 1900); type: functional, organism-based
Streptokinase A = molecular target: T4, Streptokinase A (Streptococcus pyogenes serotype M1, UniProt P10520); test: viability-normalized secreted streptokinase activity reduction – plasminogen activation absorbance, OD405, dose response (AID 1914); type: functional, Streptococcus pyogenes M1 GAS;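 further: secreted streptokinase activity via plasminogen activation per viability signal from cell pellet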
T4 sequence (P10520 whole entry): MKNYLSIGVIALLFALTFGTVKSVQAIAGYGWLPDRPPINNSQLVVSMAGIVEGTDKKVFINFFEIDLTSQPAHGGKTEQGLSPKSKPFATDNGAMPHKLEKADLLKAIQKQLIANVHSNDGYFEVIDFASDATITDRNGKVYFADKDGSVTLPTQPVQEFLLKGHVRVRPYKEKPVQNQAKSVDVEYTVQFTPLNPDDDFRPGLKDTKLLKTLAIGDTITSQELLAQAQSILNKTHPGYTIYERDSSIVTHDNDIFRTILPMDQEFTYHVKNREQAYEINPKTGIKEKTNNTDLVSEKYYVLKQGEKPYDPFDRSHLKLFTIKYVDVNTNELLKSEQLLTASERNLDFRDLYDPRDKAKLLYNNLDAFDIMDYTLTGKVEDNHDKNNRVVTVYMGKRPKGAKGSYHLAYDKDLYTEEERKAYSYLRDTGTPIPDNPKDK

H9c2 = test: cells; type: functional, cell-based; details: Rattus norvegicus, H9c2, Myocardium;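 further: confirmatory concentration-response retest of ultra-high-throughput screening hits for modulation of myocardial damage; cell death induced by hydrogen peroxide oxidative stress; compound pretreatment for 60 min then peroxide exposure for 2 h; potency is for protecting the cells against peroxide damage rather than for killing them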
[12] = molecular target: T5, Rac GTPase-activating protein 1 (Homo sapiens, UniProt Q9H0H5); test: blockers of MgcRacGAP-driven Rac1 GTP hydrolysis – biochemical, ADP Hunter fluorescence, primary and confirmatory, confirmation (AID 624330); type: functional
T5 sequence (Q9H0H5 whole entry): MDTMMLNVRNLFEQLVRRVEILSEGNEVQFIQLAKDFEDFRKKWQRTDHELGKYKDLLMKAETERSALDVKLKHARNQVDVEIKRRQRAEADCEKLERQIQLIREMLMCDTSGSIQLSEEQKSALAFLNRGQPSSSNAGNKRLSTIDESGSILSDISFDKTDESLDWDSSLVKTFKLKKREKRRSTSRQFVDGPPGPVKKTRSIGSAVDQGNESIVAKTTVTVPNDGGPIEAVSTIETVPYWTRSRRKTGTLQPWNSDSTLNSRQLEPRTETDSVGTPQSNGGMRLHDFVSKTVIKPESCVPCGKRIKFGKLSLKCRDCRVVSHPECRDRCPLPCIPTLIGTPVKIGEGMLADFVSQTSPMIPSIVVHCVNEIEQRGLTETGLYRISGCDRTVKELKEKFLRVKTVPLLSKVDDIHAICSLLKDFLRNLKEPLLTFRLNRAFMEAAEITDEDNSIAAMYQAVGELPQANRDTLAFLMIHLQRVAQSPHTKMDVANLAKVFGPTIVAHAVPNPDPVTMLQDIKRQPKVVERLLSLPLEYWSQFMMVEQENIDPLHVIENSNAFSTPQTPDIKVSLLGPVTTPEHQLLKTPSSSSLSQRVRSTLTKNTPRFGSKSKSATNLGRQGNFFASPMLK

Vero = test: cells; type: functional; details: Chlorocebus sabaeus

Sequence of Large T antigen (P03070 whole entry): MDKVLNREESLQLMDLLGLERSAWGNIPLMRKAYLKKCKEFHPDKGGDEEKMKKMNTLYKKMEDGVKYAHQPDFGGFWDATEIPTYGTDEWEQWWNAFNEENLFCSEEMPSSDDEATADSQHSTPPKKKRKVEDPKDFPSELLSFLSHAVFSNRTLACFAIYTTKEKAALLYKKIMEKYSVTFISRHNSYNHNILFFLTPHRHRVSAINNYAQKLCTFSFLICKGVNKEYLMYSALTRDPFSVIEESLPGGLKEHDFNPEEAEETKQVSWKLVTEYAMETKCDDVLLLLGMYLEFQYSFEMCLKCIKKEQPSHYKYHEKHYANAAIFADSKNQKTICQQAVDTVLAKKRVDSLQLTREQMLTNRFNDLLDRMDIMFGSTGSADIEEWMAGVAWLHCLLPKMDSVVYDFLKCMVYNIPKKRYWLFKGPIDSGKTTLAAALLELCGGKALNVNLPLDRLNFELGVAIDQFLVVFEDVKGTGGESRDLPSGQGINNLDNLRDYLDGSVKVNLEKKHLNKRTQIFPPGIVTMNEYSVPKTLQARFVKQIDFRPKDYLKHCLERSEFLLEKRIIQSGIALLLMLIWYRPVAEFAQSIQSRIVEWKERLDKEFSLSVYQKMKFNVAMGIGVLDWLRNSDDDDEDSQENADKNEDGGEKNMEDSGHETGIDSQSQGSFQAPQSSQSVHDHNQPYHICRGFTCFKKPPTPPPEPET
T2 sequence (P11940 whole entry, the tested form may be a part): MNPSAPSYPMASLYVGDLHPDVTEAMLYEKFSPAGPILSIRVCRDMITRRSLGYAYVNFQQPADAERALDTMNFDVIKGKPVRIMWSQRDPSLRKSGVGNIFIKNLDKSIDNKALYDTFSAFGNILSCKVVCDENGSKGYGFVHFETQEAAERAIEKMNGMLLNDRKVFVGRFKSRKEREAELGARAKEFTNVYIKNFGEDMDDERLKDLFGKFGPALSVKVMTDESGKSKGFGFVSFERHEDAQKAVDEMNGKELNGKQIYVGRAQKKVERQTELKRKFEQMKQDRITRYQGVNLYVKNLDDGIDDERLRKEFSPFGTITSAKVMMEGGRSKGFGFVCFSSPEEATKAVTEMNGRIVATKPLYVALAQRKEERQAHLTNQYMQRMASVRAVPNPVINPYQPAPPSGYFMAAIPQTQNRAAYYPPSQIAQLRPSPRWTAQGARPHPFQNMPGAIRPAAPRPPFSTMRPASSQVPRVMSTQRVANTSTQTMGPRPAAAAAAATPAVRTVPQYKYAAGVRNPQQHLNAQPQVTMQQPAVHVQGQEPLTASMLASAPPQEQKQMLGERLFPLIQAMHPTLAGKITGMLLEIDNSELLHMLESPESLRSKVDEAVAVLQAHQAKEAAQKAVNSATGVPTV
Sequence of FAD-linked sulfhydryl oxidase ALR (P55789 whole entry): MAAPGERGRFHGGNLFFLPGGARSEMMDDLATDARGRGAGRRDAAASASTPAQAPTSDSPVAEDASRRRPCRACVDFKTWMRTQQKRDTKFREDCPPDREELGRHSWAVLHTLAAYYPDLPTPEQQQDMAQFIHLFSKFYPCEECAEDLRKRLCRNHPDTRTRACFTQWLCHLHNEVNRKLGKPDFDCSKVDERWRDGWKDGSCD
Sequence of Nonstructural protein 1 (Q194T2 whole entry): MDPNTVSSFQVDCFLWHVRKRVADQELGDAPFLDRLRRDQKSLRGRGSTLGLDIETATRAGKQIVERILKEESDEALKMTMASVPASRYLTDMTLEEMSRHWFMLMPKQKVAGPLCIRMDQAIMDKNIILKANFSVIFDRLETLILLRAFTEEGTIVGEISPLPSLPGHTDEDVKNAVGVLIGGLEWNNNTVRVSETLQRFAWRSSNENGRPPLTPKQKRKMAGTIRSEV
Sequence of Cytochrome P450 2C9 (P11712 whole entry): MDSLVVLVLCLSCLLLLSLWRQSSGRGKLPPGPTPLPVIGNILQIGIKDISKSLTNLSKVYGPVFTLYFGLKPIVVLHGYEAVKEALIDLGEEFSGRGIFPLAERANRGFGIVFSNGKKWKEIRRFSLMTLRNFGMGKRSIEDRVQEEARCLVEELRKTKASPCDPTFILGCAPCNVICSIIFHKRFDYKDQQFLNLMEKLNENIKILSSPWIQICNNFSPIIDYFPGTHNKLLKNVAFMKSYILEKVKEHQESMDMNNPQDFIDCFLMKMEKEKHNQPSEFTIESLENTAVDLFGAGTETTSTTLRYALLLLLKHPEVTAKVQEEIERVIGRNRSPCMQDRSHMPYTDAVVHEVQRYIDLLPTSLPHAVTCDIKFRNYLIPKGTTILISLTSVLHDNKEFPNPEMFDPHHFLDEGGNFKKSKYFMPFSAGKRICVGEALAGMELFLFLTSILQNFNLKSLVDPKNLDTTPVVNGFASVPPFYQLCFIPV

Structure (SMILES): CCC(C)[C@H]1CNCCN1CCc1cc(C(F)(F)F)cc(C(F)(F)F)c1 (stereo partly drawn)
- IC50 [1]: > 20 µM (inactive)

Structure (SMILES): CCCCC(=O)Nc1ccc2c3c(cccc13)C(=O)N2CC
- IC50 [1]: > 20 µM (inactive)

Structure (SMILES): COc1ccc(NCCc2ccccn2)cc1
- IC50 (Large T antigen): 19.3 µM (active)

Structure (SMILES): CC(=O)Nc1ccc(SCCN2CC[C@@H](C(C)(C)C)CCC2=O)cc1
- IC50 [2]: > 66 µM (inactive)
- IC50 [3]: > 66 µM (inactive)
- AC50 [4]: 0.25 µM (active)

Structure (SMILES): O=C(Nc1ccncc1)C1CCN(S(=O)(=O)c2cccc(C(F)(F)F)c2)CC1
- IC50 [1]: > 20 µM (inactive)

Structure (SMILES): CCOC(=O)N1CCN(S(=O)(=O)c2ccc(C(=O)Nc3nc4c(s3)CC(C)CC4)cc2)CC1 (stereo not drawn)
- EC50 [5]: 1.25 µM (active)
- EC50 [6]: 1.7 µM (active)

Structure (SMILES): Oc1ccc2ccccc2c1N=Nc1ccccc1F
- IC50 (Nonstructural protein 1): 20.4 µM (active)

Structure (SMILES): CCC1(C)N=C(N)Nc2nc3cc(C)c(C)cc3n21 (stereo not drawn)
- EC50 [7]: > 260 µM (inactive)
- AC50 [4]: 4.1 µM (active)

Structure (SMILES): CC(C)C(=O)Nc1ccc(O)c(-c2csc(N)n2)c1
- IC50 (Large T antigen): 46.3 µM (active)

Structure (SMILES): CCC(/C=C1\Sc2ccc(OC)cc2N1CCCS(=O)(=O)[O-])=C\c1sc2ccc(OC)cc2[n+]1CC
- AC50 (INS1): 3.3 µM (active)
- AC50 [4]: 8.75 µM (active)

Structure (SMILES): O=C(Nc1ccc(Cl)c(Cl)c1)Oc1ccc(NC(=O)c2ccco2)cc1
- IC50 (Large T antigen): > 100 µM (active)

Structure (SMILES): Nc1nc(-c2ccco2)cs1
- IC50 (Large T antigen): 79.2 µM (active)

Structure (SMILES): Cc1ccc(Nc2c(N)c(=O)oc3ccccc23)cc1
- EC50 [5]: 13.6 µM (active)
- EC50 [6]: 12.3 µM (active)
- EC50 [7]: > 260 µM (inactive)

Structure (SMILES): CCC(=O)Nc1ccc(SC#N)cc1C
- IC50 [2]: > 66 µM (inactive)
- IC50 [3]: > 66 µM (inactive)
- AC50 [4]: 0.497 µM (active)

Structure (SMILES): COc1ccc(C(=O)COC(=O)c2ccc(NC(=O)c3ccccc3)cc2)cc1
- EC50 [5]: 41.1 µM (active)
- AC50 (Cytochrome P450 2C9): 1.41 µM (inconclusive)
- EC50 [6]: 49.9 µM (active)

Structure (SMILES): CN(C)c1ccc(NC(=O)CC2NCCNC2=O)cc1 (stereo not drawn)
- IC50 (Large T antigen): 10.1 µM (active)

Structure (SMILES): CC1C/C(=N/Nc2ccc([N+](=O)[O-])cc2[N+](=O)[O-])CC(C)(C)C1 (stereo not drawn)
- IC50 (Nonstructural protein 1): 46 µM (active)

Structure (SMILES): Cc1cc(C(=O)Nc2nnc(-c3ccccc3)s2)no1
- AC50 [4]: 18.9 µM (active)

Structure (SMILES): CCCn1c2ccccc2c2nc3ccccc3nc21
- CC50 [8]: > 50 µM (active)
- IC50 [1]: > 20 µM (inactive)

Structure (SMILES): Nc1nc2ccc(-c3nc4ccccc4o3)cc2s1
- AC50 [4]: 2.44 µM (active)

Structure (SMILES): Cc1cc2nc(NCCCO)n(CC(=O)c3cc(C(C)(C)C)c(O)c(C(C)(C)C)c3)c2cc1C
- AC50 (INS1): 8.03 µM (active)
- AC50 [9]: 3.14 µM (active)
- IC50 [1]: > 20 µM (inactive)

Structure (SMILES): CCn1c(S)nnc1-c1ccc2[nH]c(C)c(C)c2c1
- AC50 [4]: 2.49 µM (active)
- EC50 [10]: > 195 µM (not active)

Structure (SMILES): COc1ccc(S(=O)(=O)N/N=C(/C)c2ccncc2)c(OC)c1
- AC50 [4]: 0.832 µM (active)

Structure (SMILES): Cc1ccc(S(=O)(=O)N(C)C)cc1NC(=O)CSc1ncc(C(F)(F)F)cc1Cl
- EC50 [5]: 88.7 µM (active)
- EC50 [6]: 647 µM (active)

Structure (SMILES): Cc1[nH]c2ccccc2c1C(c1ccccn1)c1c(C)[nH]c2ccccc12
- EC50 (Streptococcus): 12.1 µM (active)
- EC50 [11]: 5.36 µM (active)
- EC50 (Streptokinase A): > 150 µM (not active)
- IC50 (Nonstructural protein 1): > 100 µM (active)

Structure (SMILES): Nc1cc(CN2C(=O)c3ccccc3C2=O)cc(Cl)c1O
- IC50 (Large T antigen): 8.42 µM (active)

Structure (SMILES): Nc1ccc2[nH]c(-c3cccs3)nc2c1
- IC50 (H9c2): 15.5 µM (active)
- IC50 (Large T antigen): 11.9 µM (active)

Structure (SMILES): Oc1ccc(/C=N/NC(=S)NCCN2CCOCC2)c(O)c1
- IC50 [12]: 20.6 µM (active)
- IC50 (Large T antigen): 7.26 µM (active)
- IC50 (Nonstructural protein 1): 6.59 µM (active)

Structure (SMILES): CCc1ccc(/C=N/NC(=O)Cc2cccn2C)cc1
- AC50 [4]: 13.4 µM (active)

Structure (SMILES): O=C(CCC(=O)N1CCOc2ccc(Cl)cc21)NCCCN1CCC(Cc2ccccc2)CC1
- CC50 (Vero): 18.9 µM (active)
- IC50 [1]: > 20 µM (inactive)

Structure (SMILES): CCN(CC)CCC(c1ccc(N(C)C)cc1)c1c(OC)cc(OC)c2c(-c3ccccc3)cc(=O)oc12 (stereo not drawn)
- IC50 [1]: > 20 µM (inactive)
- IC50 (Nonstructural protein 1): 13.6 µM (active)

Structure (SMILES): CCN(CC)C(=O)CC(c1ccc(N(C)C)cc1)c1c(OC)cc(OC)c2ccc(=O)oc12 (stereo not drawn)
- AC50 [4]: 3.89 µM (active)

Structure (SMILES): COc1ccccc1NS(=O)(=O)c1ccc(C)c(C(=O)N2CCN(c3ccc(O)cc3)CC2)c1
- IC50 [12]: 24.2 µM (active)
- AC50 [4]: 0.022 µM (active)

Structure (SMILES): CNC(C)Cc1ccccc1Sc1ccc(O)cc1 (stereo not drawn)
- AC50 (Cytochrome P450 2C9): 28.2 µM (inconclusive)
- IC50 (Large T antigen): 94.4 µM (active)
- AC50 [4]: 3.15 µM (active)

Structure (SMILES): O=C1c2ccccc2C(=O)C12OC2c1ccc(Cl)cc1Cl (stereo not drawn)
- EC50 [5]: 29.6 µM (active)
- EC50 [6]: 20.3 µM (active)
